Patent US20050074820A1, “Method for the immunohistological detection of fibrogenesis in histological tissue sections using antiboides against C-terminal procollagen alpha1 (III) propeptide” (priority 2001, published 2005)

Assays:
[1] = system: α-SMA; test: Quantitative immunostain of α-SMA in liver tissue sections (image analysis); type: in vivo, human; conditions: for α-SMA expression (stained area over total area): all lamivudine patients; for α-SMA expression: lamivudine-treated, Pre
Protocol: (§1) Paraffin-embedded tissue sections were stained for α-smooth muscle actin (α-SMA) or PIIICP (FIG. 2). The staining procedure was carried out using the DAKO Envision System (DAKO; Carpinteria, Calif., USA). After inhibiting endogenous peroxidase with Peroxidase Blocking Agent (DAKO) the tissue sections were incubated for 10 minutes at room temperature with a murine monoclonal anti-α-SMA antibody (diluted 1:200 in PBS+1% BSA) or with a murine monoclonal anti-PIIICP antibody (antibody concentration 5 mg/ml; diluted 1:100 in PBS+1% BSA). After the incubation, the sections were washed twice with PBS buffer for 3 minutes, respectively. The tissue sections were then incubated with labelled polymer (peroxidase-labelled polymer conjugated with anti-rabbit and anti-mouse immunoglobulins from the goat) at room temperature for 10 minutes. After washing twice with PBS buffer the tissue sections were incubated with 3,3-diaminobenzidine (DAB) substrate for 8 minutes, rinsed with water and exposed to DAB Enhancer (Innovex Bioscience; Richmond, Calif., USA) for 5 minutes and subsequently rinsed with water again. Counterstaining was performed with hematoxyline. As a negative control all samples were incubated with 1% BSA solution instead of antibody.
(§2) The stained parenchymal areas on the tissue sections, that are formed by α-SMA or PIIICP-positive hepatic stellate cells, were quantified with the Bioquant TCW 98 image analysis program (Bioquant Image Analysis; www.bioquant.com) with the connected Computer as well as with an Olympus microscope. The results were stated as the percent ratio between the stained area and the total area.
(§3) The immunohistochemical quantification was futhermore correlated with changes of individual components of the histological activity index (HAI) or with entire HAI. For the individual patients in both treatment groups—lamivudine or placebo, respectively—the change of α-SMA- or PIIICP-stained areas was calculated according to: ΔSMA (or ΔPIIICP)=percent area before treatment minus percent […]. The mean change was compared between the lamivudine-treated and the placebo-treated groups using Student's t-Test.

[2] = system: hepatitis B e-antigen (HBeAg); test: Loss of hepatitis B e-antigen under treatment; type: in vivo, hepatitis B virus; conditions: lamivudine 100 mg daily, 52 weeks; versus 9% placebo, p<0.05
From the text: The liver tissue samples were examined by a pathologist. […] A reduction of the HAI by 2 points HAI is considered a significant change in hepatic histology after the termination of the treatment.
The baselines and the quantitative immunostains against α-SMA und PIIICP were compared between lamivudine und placebo patients using Student's t-tests. In addition, the results of the immunostains were correlated with the loss of the hepatitis B e-antigen (HBeAg) using the Mantel-Haenszel chi square test.

[3] = system: hepatitis B virus (HBV) DNA; test: HBV DNA concentration before and after treatment; type: in vivo
[4] = system: PIIICP; test: Quantitative immunostain of PIIICP in liver tissue sections (image analysis); type: in vivo, human; conditions: for PIIICP expression (stained area over total area): all lamivudine patients; for PIIICP expression: lamivudine-treated, Pre
Protocol: as §1, §2, §3

[5] = system: patients with chronic hepatitis B; test: Serum ALT before and after 52 weeks of treatment, phase III trials; type: in vivo, human
[6] = lamivudine group n = 47, Post (100 mg daily, 52 weeks)

SMILES: Nc1ccn([C@@H]2CS[C@H](CO)O2)c(=O)n1 [Lamivudine, lamivudine]
- α-SMA expression (stained area over total area) ([1]; after treatment): 0.58±0.11%
- α-SMA expression (stained area over total area) ([1]; before treatment): 1.06±0.23%
- α-SMA expression ([1]; HbeAg loss (n = 17)): 1.46
- α-SMA expression ([1]; No loss of HbeAg (n = 30)): 0.83
- patients who lost the HbeAg [2]: 36.2%
- HBV DNA [3, 6]: 33 ± 120 pg/mL
- HBV DNA ([3]; lamivudine group n = 47, Pre (before treatment)): 180 ± 211^ψ pg/ml
- PIIICP expression (stained area over total area) ([4]; after lamivudine): 0.02%
- PIIICP expression (stained area over total area) ([4]; before lamivudine): 0.06%
- PIIICP expression ([4]; HbeAg loss (n = 17)): 0.10
- PIIICP expression ([4]; No loss of HbeAg (n = 30)): 0.03
- ALT (mean ± SD) ([5]; chronic hepatitis B patients, lamivudine group n = 47, Pre (before treatment)): 154 ± 100 IU/l
- ALT (mean ± SD) [5, 6]: 60.7 ± 55 IU/l
